# Data from ChEMBL document CHEMBL1130722, “Synthesis of gem-difluoro-avermectin derivatives: potent anthelmintic and anticonvulsant agents” (1998).
# Experiments:
# Assay type in all cases: functional
# Haemonchus contortus = test: Compound was tested for the anthelmintic efficacy by using Haemonchus contortus larval assay
# Artemia salina = test: Compound was tested for the antiparasitic activity by using Artemia salina (brine shrimp) immobilization assay
# Mus musculus [1] = species: Mus musculus; test: Compound was tested for the anticonvulsant activity in pentamethylenetetrazole mouse epilepsy model
# Mus musculus [2] = species: Mus musculus; test: Compound was tested for the sedative effect by using mouse rotarod test; conditions: for minimal effective dose: read-out: MED
Molecule,IC100 (Haemonchus contortus) [ng/mL],IC100 (Artemia salina) [ng/mL],ED50 (Mus musculus [1]) [mg/kg],MED (Mus musculus [2]) [mg/kg],minimal effective dose (Mus musculus [2]) [mg/kg],IC100 (Mus musculus [1]) [ng/mL]
IVERMECTIN,10,430,28.2,> 300,–,–
CCC(C)[C@H]1O[C@]2(C=C[C@@H]1C)C[C@@H]1C[C@@H](C/C=C(\C)[C@@H](O[C@H]3C[C@H](OC)[C@@H](O[C@H]4C[C@H](OC)C(F)(F)[C@H](C)O4)[C@H](C)O3)[C@@H](C)/C=C/C=C3\CO[C@@H]4[C@H](O)C(C)=C[C@@H](C(=O)O1)[C@]34O)O2 (stereo partly drawn),10,5200,–,–,–,–
CCC(C)[C@H]1O[C@@]2(C[C@@H]3C[C@@H](C/C=C(\C)[C@@H](O[C@H]4C[C@H](OC)[C@@H](O[C@H]5C[C@H](OC)[C@@H](O)[C@H](C)O5)[C@H](C)O4)[C@@H](C)/C=C/C=C4\CO[C@@H]5[C@H](O)C(C)=C[C@@H](C(=O)O3)[C@]45O)O2)CC(F)(F)[C@@H]1C (stereo partly drawn),10,13009,9,–,> 40,–
CN1C(=O)CN=C(c2ccccc2)c2cc(Cl)ccc21 [DIAZEPAM],–,–,0.26,–,3,–
CCC(C)[C@H]1O[C@]2(C=C[C@@H]1C)C[C@@H]1C[C@@H](C/C=C(\C)[C@@H](O[C@H]3C[C@H](OC)[C@@H](O[C@H]4C[C@H](OC)[C@H](O)[C@H](C)O4)[C@H](C)O3)[C@@H](C)/C=C/C=C3\CO[C@@H]4[C@H](O)C(C)=C[C@@H](C(=O)O1)[C@]34O)O2 (stereo partly drawn),–,430,–,–,–,28.2
CCC(C)[C@H]1O[C@]2(C=C[C@@H]1C)C[C@@H]1C[C@@H](C/C=C(\C)[C@@H](O[C@H]3C[C@H](OC)C(F)(F)[C@H](C)O3)[C@@H](C)/C=C/C=C3\CO[C@@H]4[C@H](O)C(C)=C[C@@H](C(=O)O1)[C@]34O)O2 (stereo partly drawn),10,–,–,–,–,–
CCC(C)[C@H]1O[C@@]2(C[C@@H]3C[C@@H](C/C=C(\C)[C@@H](O[C@H]4C[C@H](OC)[C@@H](O[C@H]5C[C@H](OC)[C@@H](O)[C@H](C)O5)[C@H](C)O4)[C@@H](C)/C=C/C=C4\CO[C@@H]5[C@H](OC)C(C)=C[C@@H](C(=O)O3)[C@]45O)O2)CC(F)(F)[C@@H]1C (stereo partly drawn),10,–,–,–,–,–
CCC(C)[C@H]1O[C@]2(C=C[C@@H]1C)C[C@@H]1C[C@@H](C/C=C(\C)C(F)(F)[C@@H](C)/C=C/C=C3\CO[C@@H]4[C@H](O)C(C)=C[C@@H](C(=O)O1)[C@]34O)O2 (stereo partly drawn),10,325,–,–,–,–
